These results are taken from paper PMC9995496, “A screen for MeCP2-TBL1 interaction inhibitors using a luminescence-based assay” (Scientific Reports, 2023).

The test relates to PRKACA-PRKAR2A interaction (SmBiT-PRKACA / LgBiT-PRKAR2A), protein kinase A. More on the design: NanoLuc complementation counter-screen in cell extract, PRKACA with PRKAR2A, loss of luminescence, detects NanoLuc interference. The following applies: 0.5 h, 20 µM, inhibitor.
The mark [1] stands for this setting: counter-screen for NanoLuc interference.
Where [2] appears, read: counter-screen for NanoLuc interference, Inh (PKA).

Molecules are shown by their SMILES. Counter-ions that a name gives are not always drawn. Like-named read-outs stand apart in the source and are kept apart here.

Take `C=C[C@@H]1C[C@]1(NC(=O)[C@@H]1C[C@@H](Oc2ncc(OC)c3ccc(Cl)cc23)CN1C(=O)[C@@H](NC(=O)OC(C)(C)C)C(C)(C)C)C(=O)NS(=O)(=O)C1CC1` [UM0141521:01, Asunaprevir (BMS-650032)]: the “Inh (PKA)” value under setting [1] is -7.752%. Still for that read-out and setting: for `C=CC(=O)Nc1cccc(Nc2nc(Nc3ccc(OCCOC)cc3)ncc2F)c1` [UM0141522:01, AVL-292] the value was 22.87%; for `COc1cc([C@@H]2c3cc4c(cc3[C@H](O)[C@H]3COC(=O)[C@@H]23)OCO4)cc(OC)c1OC` [UM0141523:01, AXL1717], 8.722%; for `C[C@@H]1COCCN1c1cc(C2(S(C)(=O)=O)CC2)nc(-c2cccc3[nH]ccc23)n1` [UM0141524:01, AZ20], 9.96%.

With `CCN(CCCOc1ccc2c(Nc3cc(CC(=O)Nc4cccc(F)c4)[nH]n3)ncnc2c1)CCOP(=O)(O)O` [UM0141525:01, AZD1152], the “Inh (PKA)” value under setting [1] was found to be 8.114%.

For the compound `COC(=O)[C@]12CCC(C)(C)C[C@H]1[C@H]1C(=O)C=C3[C@@]4(C)C=C(C#N)C(=O)C(C)(C)[C@@H]4CC[C@@]3(C)[C@]1(C)CC2` [UM0141526:01, Bardoxolone methyl], the “Inh (PKA)” value under setting [1] was found to be 12.18%. The same measure, in the same setting: for `CNCc1ccc(C)c(NC(=O)c2ccc(Nc3nc(-c4ccccc4)c4ccccc4n3)cc2)c1` [UM0141527:01, BMS-833923] the value was 45.75%; for `C=CC(=O)Nc1cc(-n2c(=O)ccc3cnc4ccc(-c5ccc(NS(C)(=O)=O)cc5)cc4c32)ccc1C` [UM0141528:01, BMX-IN-1], 6.521%; for `CC(C)(C)NC(=O)N[C@H](C(=O)N1C[C@H]2[C@@H]([C@H]1C(=O)NC(CC1CCC1)C(=O)C(N)=O)C2(C)C)C(C)(C)C` (stereo partly drawn) [UM0141529:01, Boceprevir], 1.202%.

Turning to `Cc1c(NC(=O)c2ccc(C(C)(C)C)cc2)cccc1-c1cn(C)c(=O)c(Nc2ccc(C(=O)N3CCOCC3)cc2)n1` [UM0141530:01, CGI-1746], the “Inh (PKA)” value under setting [1] is 10.06%. On the same count and under the same terms, for `C[C@@H](O)[C@H](NC(=O)c1ccc(C#Cc2ccc(CN3CCOCC3)cc2)cc1)C(=O)NO` [UM0141531:01, CHIR-090] the value was 2.568%; for `C=CC(=O)Nc1cccc(Nc2nc(Nc3ccc(N4CCN(C(C)=O)CC4)cc3OC)ncc2C(F)(F)F)c1` [UM0141532:01, CO-1686 (AVL-301)], 17.5%.

On to `O=C(c1ccc(F)c(F)c1Nc1ccc(I)cc1F)N1CC(O)([C@@H]2CCCCN2)C1` [UM0141533:01, Cobimetinib], for which the “Inh (PKA)” value under setting [1] was determined as 6.124%.

For `C=C1C(=O)O[C@@H]2/C=C(\C)CC/C=C(\C)CC[C@@H]12` [UM0141534:01, Costunolide], the “Inh (PKA)” value under setting [1] was found to be 4.671%. The same measure, in the same setting: for `COc1cc(/C=C/C(=O)CC(=O)/C=C/c2ccc(O)c(OC)c2)ccc1O` [UM0141535:01, Curcumin] the value was 70.09%; for `CN1CCCN(C(=O)c2cccc(-c3ccc(/C=C4/C(=O)Nc5ccc(Cl)cc54)o3)c2)CC1` [UM0141536:01, CX-6258], 48.23%.

On to `CC(C)(C)NS(=O)(=O)c1cncc(-c2cc(F)c3nc(N)nn3c2)c1` [UM0141537:01, CZC24832], for which the “Inh (PKA)” value under setting [1] was 2.566%. The same measure, in the same setting: in the case of `S=C(S)O[C@@H]1C[C@@H]2C[C@@H]1[C@H]1CCC[C@@H]21` [UM0141538:01, D609] it was 17.68%. As to `CCCCCCOC(=O)NC(=N)c1ccc(NCc2nc3cc(C(=O)N(CCC(=O)OCC)c4ccccn4)ccc3n2C)cc1` [UM0141539:01, Dabigatran etexilate mesylate], the “Inh (PKA)” value under setting [2] turned out to be 7.702%. The same measure, in the same setting: for `CC(C)(C)c1nc(-c2cccc(NS(=O)(=O)c3c(F)cccc3F)c2F)c(-c2ccnc(N)n2)s1` [UM0141540:01, Dabrafenib Mesylate (GSK-2118436)] the value was 39.79%.

As to `CCN(CC)CCN(Cc1ccc(-c2ccc(C(F)(F)F)cc2)cc1)C(=O)Cn1c(SCc2ccc(F)cc2)nc(=O)c2c1CCC2` [UM0141541:01, Darapladib], under setting [1], the “Inh (PKA)” value is given as 8.505%. The same measure, in the same setting: for `NC(=O)c1ccccc1Nc1ccnc(Nc2cccc(O)c2)n1` [UM0141542:01, DB07268] the value was 39.9%. Consider `CC(=O)O[C@@]12CO[C@@H]1C[C@H](O)[C@@]1(C)C(=O)[C@H](O)C3=C(C)[C@@H](OC(=O)[C@H](O)[C@@H](NC(=O)OC(C)(C)C)c4ccccc4)C[C@@](O)([C@@H](OC(=O)c4ccccc4)[C@H]21)C3(C)C` [UM0141543:01, Docetaxel Trihydrate], for which the “Inh (PKA)” value under setting [2] is 1.786%.

As for `CCCCc1oc2ccc(NS(C)(=O)=O)cc2c1C(=O)c1ccc(OCCCN(CCCC)CCCC)cc1` [UM0141544:01, Dronedarone], the “Inh (PKA)” value under setting [1] is listed as 6.648%.

On to `CN1CCc2nc(C(=O)N[C@@H]3C[C@@H](C(=O)N(C)C)CC[C@@H]3NC(=O)C(=O)Nc3ccc(Cl)cn3)sc2C1` [UM0141545:01, Edoxaban], for which, under setting [2], the “Inh (PKA)” value was found to be 0.988%.

For the compound `CN1CCc2nc(C(=O)N[C@@H]3C[C@@H](C(=O)N(C)C)CC[C@@H]3NC(=O)C(=O)Nc3ccc(Cl)cn3)sc2C1` [UM0141546:01, Edoxaban tosylate monohydrate], under setting [2], the “Inh (PKA)” value was 2.853%. As for `COc1cc2c(cc1OC)CN(CCc1ccc(NC(=O)c3cccc4c(=O)c5cccc(OC)c5[nH]c34)cc1)CC2` [UM0141547:01, Elacridar], the “Inh (PKA)” value under setting [1] is listed as 22.37%. With `CN1CCC(COc2cnc(-c3cccc(Cn4nc(-c5cccc(C#N)c5)ccc4=O)c3)nc2)CC1` [UM0141548:01, EMD-1214063], the “Inh (PKA)” value under setting [1] was 7.378%. Regarding `CCc1c(C(=O)NNC(=O)C(O)c2cc(F)cc(F)c2)ccc(O)c1C` (stereo not drawn) [UM0141549:01, EMD638683], the “Inh (PKA)” value under setting [1] is listed as 19.67%. As to `Cc1ccc(-c2ncc(Cl)cc2-c2ccc(S(C)(=O)=O)cc2)cn1` [UM0141550:01, Etoricoxib], under setting [1], the “Inh (PKA)” value is 2.792%.

Regarding `Cc1cc([N+](=O)[O-])ccc1NS(=O)(=O)c1cc(Cl)ccc1Cl` [UM0141551:01, FH535], the “Inh (PKA)” value under setting [1] is 77.24%.

`CC(C)n1c(/C=C/[C@H](O)C[C@H](O)CC(=O)O)c(-c2ccc(F)cc2)c2ccccc21` [UM0141552:01, Fluvastatin]: the “Inh (PKA)” value under setting [1] is reported as 9.856%.

For the compound `COc1ccc2c3c1O[C@H]1C[C@@H](O)C=C[C@@]31CCN(C)C2` [UM0141554:01, Galanthamine], the “Inh (PKA)” value under setting [2] is 0.2093%. Consider `CC(C)=CCC[C@]1(C)C=Cc2c(O)c3c(c(CC=C(C)C)c2O1)O[C@]12C(=C[C@@H]4C[C@H]1C(C)(C)O[C@@]2(C/C=C(/C)C(=O)O)C4=O)C3=O` [UM0141555:01, Gambogic Acid], for which, under setting [1], the “Inh (PKA)” value came to 4.588%. For the compound `CS(=O)(=O)N1CCN(Cc2cc3nc(-c4cccc5[nH]ncc45)nc(N4CCOCC4)c3s2)CC1` [UM0141556:01, GDC-0941 dimethanesulfonate], the “Inh (PKA)” value under setting [2] is given as 7.081%. With `CC[C@H](C)n1cc(C)c2c(C(=O)NCc3c(C)cc(C)[nH]c3=O)cc(-c3ccc(N4CCNCC4)nc3)cc21` [UM0141557:01, GSK126], the “Inh (PKA)” value under setting [1] was found to be 5.02%. The same measure, in the same setting: in the case of `Cn1cc(-c2ccc3c(c2)CCN3C(=O)Cc2cccc(C(F)(F)F)c2)c2c(N)ncnc21` [UM0141558:01, GSK2606414] it was 15.1%; in that of `CCCc1cc(C)[nH]c(=O)c1CNC(=O)c1cc(-c2ccnc(N3CCN(C)CC3)c2)cc2c1cnn2C(C)C` [UM0141559:01, GSK343], 8.178%; in that of `N=C(N)NC(=O)Cc1c(Cl)cccc1Cl` [UM0141560:01, Guanfacine hydrochloride], 4.541%. Same read-out and setting: in the case of `O=S(=O)(c1cccc2c(O)nccc12)N1CCCNCC1` [UM0141561:01, Hydroxyfasudil hydrochloride] it was 27.19%. Take `O[C@@H](c1cc(C(F)(F)F)nc2c(C(F)(F)F)cccc12)[C@H]1CCCCN1` [UM0141561:02, Mefloquine hydrochloride]: the “Inh (PKA)” value under setting [1] was 15.66%. The same measure, in the same setting: in the case of `CCCCS(=O)(=O)N[C@@H](Cc1ccc(OCCCCC2CCNCC2)cc1)C(=O)O` [UM0141561:03, Tirofiban hydrochloride monohydrate] it was 1.888%; in that of `N#Cc1ccc2[nH]cc(CCCCN3CCN(c4ccc5oc(C(N)=O)cc5c4)CC3)c2c1` [UM0141561:04, Vilazodone Hydrochloride], 10.91%. As for `COC(=O)[C@@H](N)CCCNC(=N)N[N+](=O)[O-]` [UM0141561:05, L-NAME hydrochloride], the “Inh (PKA)” value under setting [1] was -1.626%. Regarding `COc1cc2c3cc1Oc1c(OC)c(OC)cc4c1[C@@H](Cc1cccc(c1)Oc1ccc(c(O)c1)C[C@@H]3N(C)CC2)N(C)CC4` [UM0141561:06, Berbamine hydrochloride], the “Inh (PKA)” value was 0.4662%. Consider `NS(=O)(=O)NCCNc1nonc1C(=Nc1ccc(F)c(Br)c1)NO` [UM0141562:01, IDO inhibitor 1], for which, under setting [1], the “Inh (PKA)” value was determined as 11.46%. On the same count and under the same terms, for `NS(=O)(=O)NCCNc1nonc1/C(=N/O)Nc1ccc(F)c(Br)c1` [UM0141562:02, INCB-024360] the value was 8.041%. The same measure, in the same setting: in the case of `COc1cc(N2CCOCC2)ccc1NC(=O)c1csc(-c2cccnc2)n1` [UM0141564:01, IRAK inhibitor 6] it was 6.368%. `Cc1ccc2nc(NC(=O)CSc3nc4c(c(=O)n3-c3ccccc3)SCC4)sc2c1` [UM0141565:01, IWP-2]: the “Inh (PKA)” value under setting [1] was determined as 27.82%. The same measure, in the same setting: for `C/C(=C\c1csc(C)n1)[C@@H]1C[C@@H]2O[C@]2(C)CCC[C@H](C)[C@H](O)[C@@H](C)C(=O)C(C)(C)[C@@H](O)CC(=O)N1` [UM0141566:01, Ixabepilone] the value was 1.607%; for `COc1cc2ncnc(Nc3ccc(O)cc3)c2cc1OC` [UM0141567:01, JANEX-1], 3.268%. On the same count and under the same terms, in the case of `Cc1cc(NC(=O)c2cccc(NC(=O)/C=C/CN(C)C)c2)ccc1Nc1nccc(-c2cccnc2)n1` [UM0141569:01, JNK-IN-8] it was 12.62%; in that of `O=C1NCCSc2c1sc1ccc(O)cc21` [UM0141570:01, kb NB 142-70], 9.964%; in that of `N=C(N)SCCc1ccc(OCc2ccc([N+](=O)[O-])cc2)cc1` [UM0141571:01, KB-R7943 mesylate], 7.839%.
